# pIC50: −log10 of the molar value. Where two headings read alike, the source gives them in different places.
# Columns and labels:
# c-Myc/Max/Ebox DNA = target: T1, c-Myc/Max/Ebox DNA (Homo sapiens, UniProt P01106); assay: c-Myc/Max/Ebox DNA AlphaScreen Assay; type: binding; settings: Table 2, compounds of FIG. 1; calculated IC50 class
# T1 construct: his6 (cleaved yes)
# Procedure: Compounds of the invention were assayed for c-Myc/Max/EBox activity as described in the following protocol. Human his6-c-Myc and his6-Max were used with biotinylated DNA containing a single Ebox sequence (biotin[…]) purchased from MWG Operon. Free c-Myc was generated from his6-c-Myc through thrombin cleavage of the his6 tag. For 384-well plate assays, 10 μL of a 2× solution of free c-Myc (20 nM final), Ni^2+ coated Acceptor Beads (25 μg/ml final), and biotinylated Ebox oligo (10 nM final) were added to 384-well plates with a Biotek EL406 liquid handler. 50 nL of compounds from stock plates were added by pin transfer using a Janus Workstation (PerkinElmer), allowing the compounds to interact with c-Myc prior to c-Myc binding with Max. In the current assay, DMSO was not allowed to exceed 2% v/v of the assay. 10 μl of 2× master mix containing streptavidin-coated donor beads (25 μg/ml final) and his6-Max (5 nM) were added. AlphaScreen measurements were performed on an Envision plate reader (PerkinElmer) utilizing the manufacturer's protocol.
# Both master mixes were made in room temperature assay buffer (50 mM HEPES, 150 mM NaCl, 0.2% w/v BSA, 0.02% w/v Tween20, 40 μg/ml glycogen, 500 μM DTT, pH 8.0, wherein both DTT and glycogen were added fresh). Alpha beads were added to respective master solutions. All subsequent steps were performed in low light conditions. Solution 1:2× solution of components with final concentrations of c-Myc Ni-coated Acceptor Beads (25 μg/ml), and biotinylated Ebox oligo (10 nM). Solution 2:2× solution of streptavidin-coated donor beads (25 μg/ml final) and his6-Max 10 μL. […] 50 nL of compounds from stock plates were added by pin transfer using a Janus Workstation. Solution 2 (10 μl) was added with the liquid handler. Plates were sealed with foil to block light exposure and prevent evaporation. Plates were very briefly centrifuged followed by 2 hour incubation. […] Excitation was at 680 nm for donor bead release of singlet oxygen and emission was read with a bandpass filter from 520-620 nm.
# [1] = tested on: human small lung cancer cell line H2171; assay: Cell Viability Assay (ATPlite); type: cell-based; settings: Table 2, compounds of FIG. 1, H2171 cells, three days, ATPlite, calculated IC50 class, read-out: H2171 Activity
# Procedure: Compounds of the invention were assayed for cell viability using the human small lung cancer cell line H2171 as described in the following protocol. Cells were counted and adjusted to 20,000 cells/mL. Using a Biotek EL406, 50 μL of cells in media were distributed into 384 well white plates from Thermo. Immediately after plating, compound in DMSO was distributed to plates. Compounds were added to plates using a 50 nL 384 well pin transfer manifold on a Janus workstation. Stocks were arrayed in 10 point dose response in DMSO stock in 384 well Greiner compound plates. After the addition of compounds, plates were incubated for three days in a 37° C. incubator. Cell viability was read out using ATPlite from Perkin Elmer. Lyophilized powder was resuspended in lysis buffer and diluted 1:2 with deionized water. 25 μL of this solution was added to each well using the Biotek liquid handler. Plates were incubated for 15 minutes at room temperature before signal was read on an Envision Plate Reader. The data from this assay are summarized in Tables 2 and 3 below (H2171 activity).
# T1 sequence (P01106 whole entry): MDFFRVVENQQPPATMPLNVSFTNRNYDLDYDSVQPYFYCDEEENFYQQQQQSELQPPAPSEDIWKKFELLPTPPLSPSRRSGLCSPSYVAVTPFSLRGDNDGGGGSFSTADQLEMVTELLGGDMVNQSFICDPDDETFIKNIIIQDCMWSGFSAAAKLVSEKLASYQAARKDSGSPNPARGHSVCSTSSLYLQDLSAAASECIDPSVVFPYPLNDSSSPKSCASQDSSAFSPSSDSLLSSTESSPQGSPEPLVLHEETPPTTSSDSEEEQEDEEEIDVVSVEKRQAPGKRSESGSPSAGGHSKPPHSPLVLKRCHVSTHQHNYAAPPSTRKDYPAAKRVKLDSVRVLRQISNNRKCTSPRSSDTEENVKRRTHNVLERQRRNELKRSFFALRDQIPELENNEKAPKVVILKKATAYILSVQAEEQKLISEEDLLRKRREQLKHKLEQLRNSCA
pIC50 (c-Myc/Max/Ebox DNA),"pIC50 ([1]; Homo sapiens, NCI-H2171, 72 h)",pIC50 [1],Compound
5.00 to 6.00,> 6.52,,"CC[C@H](C)NCCC(=O)Nc1sc2c(c1-c1nc3ccccc3s1)CCN(C1CC(F)(F)C1)C2 [Compound 619, (S)—N-(3-(benzo[d]thiazol-2-yl)-6-(3,3-difluorocyclobutyl)-4,5,6,7-tetrahydrothieno[2,3-c]pyridin-2-yl)-3-(sec-butylamino)propanamide]"
> 6.52,> 6.52,,COCCNCCC(=O)Nc1sc2c(c1-c1nc3cc(F)ccc3s1)C[C@H](C)NC2 [Compound 571]
> 6.52,> 6.52,,COCCNCCC(=O)Nc1sc2c(c1-c1nc3ccc(-c4ccnc(F)c4)cc3s1)CCNC2 [compound 456]
> 6.52,> 6.52,,CC(C)NCCC(=O)Nc1sc2c(c1-c1nc3ccc(-c4ccncc4)cc3s1)CCNC2 [compound 192]
< 5.00,,< 5.00,"CCC(C)N(C)CCC(=O)Nc1sc2c(c1-c1nc3ccccc3s1)CCN(C(C)C)C2 (stereo not shown) [Compound 577, N-(3-(benzo[d]thiazol-2-yl)-6-isopropyl-4,5,6,7 tetrahydrothieno[2,3-c]pyridin-2-yl)-3-(sec-butyl(methyl)amino)propanamide]"
> 6.52,> 6.52,,"CC[C@H](C)NCCC(=O)Nc1sc2c(c1-c1nc3cc(-c4ccncc4)ccc3s1)C[C@@H](C)NC2 [Compound 589, 3-(((S)-sec-butyl)amino)-N—((R)-5-methyl-3-(5(pyridin-4-yl)benzo[d]thiazol-2-yl)-4,5,6,7-tetrahydrothieno[2,3-c]pyridin-2-yl)propanamide]"
> 6.52,> 6.52,,"C=Cc1cccc2sc(-c3c(NC(=O)CCNCCOC)sc4c3CCNC4)nc12 [Compound 583, 3-(2-methoxyethylamino)-N-(3-(4-vinylbenzo[d]thiazol-2-yl)-4,5,6,7-tetrahydrothieno[2,3-c]pyridin-2-yl)propanamide bis(2,2,2-trifluoroacetate)]"
> 6.52,> 6.52,,COCCNCCC(=O)Nc1sc2c(c1-c1nc3cc(-c4ccnc(F)c4)ccc3s1)CCNC2 [compound 458]
> 6.52,> 6.52,,COCCNCCC(=O)Nc1sc2c(c1-c1nc3ccc(-c4cnoc4)cc3s1)CCNC2 [compound 469]
> 6.52,6.00 to 6.52,,"O=C(CCN[C@@H]1C[C@H]2CNC[C@H]2C1)Nc1sc2c(c1-c1nc3cc(-c4ccncc4)ccc3s1)CCNC2 [Compound 606, 3-(((3aR,5s,6aS)-octahydrocyclopenta[c]pyrrol-5-yl)amino)-N-(3-(5-(pyridin-4-yl)benzo[d]thiazol-2-yl)-4,5,6,7-tetrahydrothieno[2,3-c]pyridin-2-yl)propanamide]"
> 6.52,> 6.52,,CCC(C)NCCC(=O)Nc1sc2c(c1-c1nc3cc(-c4cn[nH]c4)ccc3s1)CCNC2 (stereo not shown) [compound 151]

# Continued, compound first:
Compound,pIC50 (c-Myc/Max/Ebox DNA),"pIC50 ([1]; Homo sapiens, NCI-H2171, 72 h)",pIC50 [1]
"COCCNCCC(=O)Nc1sc2c(c1-c1nc3ccc(-c4ccncc4)cc3s1)CC(C)NC2C (single isomer, unassigned) [Compound 517, N-(5,7-Dimethyl-3-(6-(pyridin-4-yl)benzo[d]thiazol-2-yl)-4,5,6,7-tetrahydrothieno[2,3-c]pyridin-2-yl)-3-((2-methoxyethyl)amino)propanamide]",> 6.52,> 6.52,
"COCCNCCC(=O)Nc1sc2c(c1-c1nc3cc(-c4cnn(C)c4)ccc3s1)CC(C)NC2C (single isomer, unassigned) [Compound 565, N-(5,7-Dimethyl-3-(5-(1-methyl-1H-pyrazol-4-yl)benzo[d]thiazol-2-yl)-4,5,6,7-tetrahydrothieno[2,3-c]pyridin-2-yl)-3-((2-methoxyethyl)amino)propanamide]",> 6.52,,> 6.52
"CC(C)N1CCc2c(sc(NC(=O)CCN3C(=O)C=CC3=O)c2-c2nc3ccccc3s2)C1 [Compound 133, N-(3-(benzo[d]thiazol-2-yl)-6-isopropyl-4,5,6,7-tetrahydrothieno[2,3-c]pyridin-2-yl)-3-(2,5-dioxo-2,5-dihydro-1H-pyrrol-1-yl)propanamide]",< 5.00,5.00 to 6.00,
"CC(C)NCCC(=O)Nc1sc2c(c1-c1nc3cc(C(=O)Nc4cccnc4)ccc3s1)CCNC2 [Compound 510, 2-(2-(3-(Isopropylamino)propanamido)-4,5,6,7-tetrahydrothieno[2,3-c]pyridin-3-yl)-N-(pyridin-3-yl)benzo[d]thiazole-5-carboxamide]",6.00 to 6.52,> 6.52,
"CC(C)NCCC(=O)Nc1sc2c(c1-c1nc3ccccc3s1)CC(C)NC2C (single isomer, unassigned) [Compound 197, N-(3-(benzo[d]thiazol-2-yl)-5,7-dimethyl-4,5,6,7-tetrahydrothieno[2,3-c]pyridin-2-yl)-3-(isopropylamino)propanamide]",5.00 to 6.00,,6.00 to 6.52
"COCCNCCC(=O)Nc1sc2c(c1-c1nc3cc(-c4ccncc4)ccc3s1)CC(C)NC2 (single isomer, unassigned) [Compound 549, 3-((2-Methoxyethyl)amino)-N-(5-methyl-3-(5-(pyridin-4-yl)benzo[d]thiazol-2-yl)-4,5,6,7-tetrahydrothieno[2,3-c]pyridin-2-yl)propanamide]",> 6.52,> 6.52,
COCCNCCC(=O)Nc1sc2c(c1-c1nc3cc(F)ccc3s1)CCN[C@@H]2C [Compound 557],> 6.52,> 6.52,
"CC(C)NCCC(=O)Nc1sc2c(c1-c1nc3ccccc3s1)CC(C)NC2C (single isomer, unassigned) [Compound 195, N-(3-(benzo[d]thiazol-2-yl)-5,7-dimethyl-4,5,6,7-tetrahydrothieno[2,3-c]pyridin-2-yl)-3-(isopropylamino)propanamide]",> 6.52,,> 6.52
"COCCNCCC(=O)Nc1sc2c(c1-c1nc3cc(F)ccc3s1)CC(C)NC2C (single isomer, unassigned) [Compound 546, N-(3-(5-Fluorobenzo[d]thiazol-2-yl)-5,7-dimethyl-4,5,6,7-tetrahydrothieno[2,3-c]pyridin-2-yl)-3-((2-methoxyethyl)amino)propanamide]",< 5.00,,> 6.52
"COCCNCCC(=O)Nc1sc2c(c1-c1nc3cc(-c4ccncc4)ccc3s1)CC(C)NC2C (single isomer, unassigned) [Compound 521, N-(5,7-dimethyl-3-(5-(pyridin-4-yl)benzo[d]thiazol-2-yl)-4,5,6,7-tetrahydrothieno[2,3-c]pyridin-2-yl)-3-((2-methoxyethyl)amino)propanamide]",> 6.52,> 6.52,
"COCCNCCC(=O)Nc1sc2c(c1-c1nc3cc(-c4cnn(C)c4)ccc3s1)CC(C)NC2C (single isomer, unassigned) [Compound 564, N-(5,7-Dimethyl-3-(5-(1-methyl-1H-pyrazol-4-yl)benzo[d]thiazol-2-yl)-4,5,6,7-tetrahydrothieno[2,3-c]pyridin-2-yl)-3-((2-methoxyethyl)amino)propanamide]",> 6.52,> 6.52,
"COCCNCCC(=O)Nc1sc2c(c1-c1nc3cc(-c4cccnc4)ccc3s1)CC(C)NC2C (single isomer, unassigned) [Compound 525, N-(5,7-Dimethyl-3-(5-(pyridin-3-yl)benzo[d]thiazol-2-yl)-4,5,6,7-tetrahydrothieno[2,3-c]pyridin-2-yl)-3-((2-methoxyethyl)amino)propanamide]",> 6.52,,> 6.52
